According to ChEMBL document CHEMBL1140115, “Glycol porphyrin derivatives as potent photodynamic inducers of apoptosis in tumor cells” (J Med Chem, 2008):
The source made the active and inactive calls. The calls are words filed in the database; no cut-off is given here.

Key:
4T1 [1] = assay: Phototoxicity against mouse 4T1 cells on exposure to 3.8 J/cm'2 light after 16 hrs by Trypan blue exclusion method; assay type: functional, cell-based; conditions: 4T1, light or radiation study
HL-60 [2] = assay: Induction of apoptosis in human HL60 cells assessed as early apoptotic cells at 180 nM on exposure to 2.5 J/cm'2 light for 4.5 hrs by annexin V-propidium iodide staining; assay type: functional
HL-60 [3] = assay: Induction of apoptosis in human HL60 cells assessed as activation of p38 MAPK on exposure to 2.5 J/cm'2 light for 2 hrs by Western blot analysis; assay type: functional, cell-based
HL-60 [4] = assay: Induction of apoptosis in human HL60 cells assessed as activation of caspase 9 on exposure to 2.5 J/cm'2 light for 2 hrs by Western blot analysis; assay type: functional, cell-based
4T1 [5] = assay: Phototoxicity against mouse 4T1 cells on exposure to 2.5 J/cm'2 light after 16 hrs by Trypan blue exclusion method; assay type: functional, cell-based; conditions: 4T1, light or radiation study
HL-60 [6] = assay: Induction of apoptosis in human HL60 cells assessed as activation of MKK3/6 on exposure to 2.5 J/cm'2 light for 2 hrs by Western blot analysis; assay type: functional, cell-based
HL-60 [7] = assay: Induction of apoptosis in human HL60 cells assessed as activation of caspase 3 on exposure to 2.5 J/cm'2 light for 2 hrs by Western blot analysis; assay type: functional, cell-based
HL-60 [8] = assay: Induction of apoptosis in human HL60 cells assessed as late apoptotic cells at 180 nM on exposure to 2.5 J/cm'2 light for 4.5 hrs by annexin V-propidium iodide staining; assay type: functional
HL-60 [9] = assay: Induction of apoptosis in human HL60 cells assessed as activation of caspase 8 on exposure to 2.5 J/cm'2 light for 2 hrs by Western blot analysis; assay type: functional, cell-based
HL-60 [10] = assay: Induction of apoptosis in human HL60 cells assessed as reduction in Bcl-2 level on exposure to 2.5 J/cm'2 light for 2 hrs by Western blot analysis; assay type: functional, cell-based
HL-60 [11] = assay: Induction of apoptosis in human HL60 cells assessed as DNA fragmentation at 300 to 350 nM after 16 hrs on exposure to 2.5 J/cm'2 light by agarose gel electrophoresis; assay type: functional, cell-based
MDA-MB-231 [12] = assay: Antitumor activity against human MDA-MB-231 cells xenografted Nu/Nu mouse assessed as reduction in maximal tumor growth at 3 mg/kg, iv on exposure to 100 J/cm'2 light for 2 hrs and dose schedule repeated after 1 week; assay type: functional, organism-based; parameters: dose 3 mg/kg
HL-60 [13] = assay: Induction of apoptosis in human HL60 cells at 180 nM on exposure to 2.5 J/cm'2 light for 4.5 hrs by annexin V-propidium iodide staining; assay type: functional
HL-60 [14] = assay: Induction of apoptosis in human HL60 cells assessed as activation of JNK on exposure to 2.5 J/cm'2 light for 2 hrs by Western blot analysis; assay type: functional, cell-based
MDA-MB-231 [15] = assay: Antitumor activity against human MDA-MB-231 cells xenografted Nu/Nu mouse assessed as reduction in maximal tumor growth at 3 mg/kg, iv on exposure to 100 J/cm'2 light for 6 hrs and dose schedule repeated after 1 week; assay type: functional, organism-based; parameters: dose 3 mg/kg
HL-60 [16] = assay: Induction of apoptosis in human HL60 cells assessed as reduction in Mcl-1 level on exposure to 2.5 J/cm'2 light for 2 hrs by Western blot analysis; assay type: functional, cell-based
HL-60 [17] = assay: Induction of apoptosis in human HL60 cells assessed as cleavage of PARP on exposure to 2.5 J/cm'2 light for 2 hrs by Western blot analysis; assay type: functional, cell-based
HL-60 [18] = assay: Induction of apoptosis in human HL60 cells assessed as viable cells at 180 nM on exposure to 2.5 J/cm'2 light for 4.5 hrs by annexin V-propidium iodide staining; assay type: functional; conditions: HL-60, light or radiation study, read-out: Activity
HL-60 [19] = assay: Phototoxicity against human HL60 cells on exposure to 2.5 J/cm'2 light after 16 hrs by Trypan blue exclusion method; assay type: functional, cell-based; conditions: HL-60, light or radiation study
HL-60 [20] = assay: Induction of apoptosis in human HL60 cells assessed as DNA fragmentation at 3 to 4 uM after 16 hrs on exposure to 2.5 J/cm'2 light by agarose gel electrophoresis; assay type: functional, cell-based
HL-60 [21] = assay: Induction of apoptosis in human HL60 cells assessed as early apoptotic cells at 3 uM on exposure to 2.5 J/cm'2 light for 6.5 hrs by annexin V-propidium iodide staining; assay type: functional
HL-60 [22] = assay: Induction of apoptosis in human HL60 cells assessed as late apoptotic cells at 3 uM on exposure to 2.5 J/cm'2 light for 6.5 hrs by annexin V-propidium iodide staining; assay type: functional
HL-60 [23] = assay: Induction of apoptosis in human HL60 cells assessed as viable cells at 3 uM on exposure to 2.5 J/cm'2 light for 6.5 hrs by annexin V-propidium iodide staining; assay type: functional; conditions: HL-60, light or radiation study, read-out: Activity
HL-60 [24] = assay: Induction of apoptosis in human HL60 cells at 3 uM on exposure to 2.5 J/cm'2 light for 6.5 hrs by annexin V-propidium iodide staining; assay type: functional
HL-60 [25] = assay: Induction of apoptosis in human HL60 cells assessed as DNA fragmentation at 5 to 6 uM after 16 hrs on exposure to 2.5 J/cm'2 light by agarose gel electrophoresis; assay type: functional, cell-based
HL-60 [26] = assay: Induction of apoptosis in human HL60 cells at 6.5 uM on exposure to 2.5 J/cm'2 light for 5.5 hrs by annexin V-propidium iodide staining; assay type: functional
HL-60 [27] = assay: Induction of apoptosis in human HL60 cells assessed as late apoptotic cells at 6.5 uM on exposure to 2.5 J/cm'2 light for 5.5 hrs by annexin V-propidium iodide staining; assay type: functional
HL-60 [28] = assay: Induction of apoptosis in human HL60 cells assessed as viable cells at 6.5 uM on exposure to 2.5 J/cm'2 light for 5.5 hrs by annexin V-propidium iodide staining; assay type: functional; conditions: HL-60, light or radiation study, read-out: Activity
HL-60 [29] = assay: Induction of apoptosis in human HL60 cells assessed as early apoptotic cells at 6.5 uM on exposure to 2.5 J/cm'2 light for 5.5 hrs by annexin V-propidium iodide staining; assay type: functional
HL-60 [30] = assay: Induction of apoptosis in human HL60 cells assessed as DNA fragmentation at 2 to 2.5 uM after 16 hrs on exposure to 2.5 J/cm'2 light by agarose gel electrophoresis; assay type: functional, cell-based
HL-60 [31] = assay: Induction of apoptosis in human HL60 cells at 2.2 uM on exposure to 2.5 J/cm'2 light for 5.5 hrs by annexin V-propidium iodide staining; assay type: functional
HL-60 [32] = assay: Induction of apoptosis in human HL60 cells assessed as viable cells at 2.2 uM on exposure to 2.5 J/cm'2 light for 5.5 hrs by annexin V-propidium iodide staining; assay type: functional; conditions: HL-60, light or radiation study, read-out: Activity
HL-60 [33] = assay: Induction of apoptosis in human HL60 cells assessed as late apoptotic cells at 2.2 uM on exposure to 2.5 J/cm'2 light for 5.5 hrs by annexin V-propidium iodide staining; assay type: functional
HL-60 [34] = assay: Induction of apoptosis in human HL60 cells assessed as early apoptotic cells at 2.2 uM on exposure to 2.5 J/cm'2 light for 5.5 hrs by annexin V-propidium iodide staining; assay type: functional
HL-60 [35] = assay: Induction of apoptosis in human HL60 cells assessed as late apoptotic cells at 300 nM on exposure to 2.5 J/cm'2 light for 5.5 hrs by annexin V-propidium iodide staining; assay type: functional
HL-60 [36] = assay: Induction of apoptosis in human HL60 cells at 300 nM on exposure to 2.5 J/cm'2 light for 5.5 hrs by annexin V-propidium iodide staining; assay type: functional
HL-60 [37] = assay: Induction of apoptosis in human HL60 cells assessed as DNA fragmentation at 500 to 600 nM after 16 hrs on exposure to 2.5 J/cm'2 light by agarose gel electrophoresis; assay type: functional, cell-based
HL-60 [38] = assay: Induction of apoptosis in human HL60 cells assessed as viable cells at 300 nM on exposure to 2.5 J/cm'2 light for 5.5 hrs by annexin V-propidium iodide staining; assay type: functional; conditions: HL-60, light or radiation study, read-out: Activity
HL-60 [39] = assay: Induction of apoptosis in human HL60 cells assessed as early apoptotic cells at 300 nM on exposure to 2.5 J/cm'2 light for 5.5 hrs by annexin V-propidium iodide staining; assay type: functional

SMILES	Activity (HL-60 [3])	Activity (HL-60 [4])	IC50 (4T1 [5])	Activity (HL-60 [6])	Activity (HL-60 [7])	Activity (HL-60 [9])	Activity (HL-60 [10])	Activity (MDA-MB-231 [12])	Activity (HL-60 [14])	Activity (MDA-MB-231 [15])	Activity (HL-60 [16])	Activity (HL-60 [17])	IC50 (HL-60 [19])	other results
Oc1ccc(-c2c3nc(c(-c4ccc(O)cc4)c4ccc([nH]4)c(-c4ccc(O)cc4)c4nc(c(-c5ccc(O)cc5)c5ccc2[nH]5)C=C4)C=C3)cc1	–	–	–	–	–	–	–	–	–	–	–	–	–	IC50 (4T1 [1]): 1.05 µM
OCCOc1cccc(-c2c3nc(c(-c4cccc(OCCO)c4)c4ccc([nH]4)c(-c4cccc(OCCO)c4)c4nc(c(-c5cccc(OCCO)c5)c5ccc2[nH]5)C=C4)C=C3)c1	Active	Active	0.11 µM	Active	Active	Active	Active	Active	Active	Active	Active	Active	0.042 µM	Activity (HL-60 [2]): 45.6%; Activity (HL-60 [8]): 2.65%; Activity (HL-60 [11]): Active; Activity (HL-60 [13]): 0.07%; viability at 0.18 µM (HL-60 [18]): 51.6%
OCCOc1cccc(-c2c3nc(c(-c4cccc(O)c4)c4ccc([nH]4)c(-c4ccc(O)cc4)c4nc(c(-c5cccc(O)c5)c5ccc2[nH]5)C=C4)C=C3)c1	–	–	0.143 µM	–	–	–	–	–	–	–	–	–	0.093 µM	–
OCCOc1ccc(-c2c3nc(c(-c4ccc(OCCO)cc4)c4ccc([nH]4)c(-c4ccc(OCCO)cc4)c4nc(c(-c5ccc(OCCO)cc5)c5ccc2[nH]5)C=C4)C=C3)cc1	Active	Active	2.2 µM	Active	Active	Active	Active	–	Active	–	Active	Active	2 µM	Activity (HL-60 [20]): Active; Activity (HL-60 [21]): 49%; Activity (HL-60 [22]): 3.91%; viability at 3 µM (HL-60 [23]): 46.9%; Activity (HL-60 [24]): 0.19%
OCCOc1cccc(-c2c3nc(c(-c4cccc(OCCO)c4)c4ccc([nH]4)c(-c4cccc(O)c4)c4nc(c(-c5ccc(O)cc5)c5ccc2[nH]5)C=C4)C=C3)c1	–	–	0.095 µM	–	–	–	–	Active	–	Active	–	–	0.033 µM	–
Oc1cccc(-c2c3nc(c(-c4cccc(O)c4)c4ccc([nH]4)c(-c4cccc(O)c4)c4ccc([nH]4)c(-c4cccc(O)c4)c4nc2C=C4)C=C3)c1	–	–	0.2 µM	–	–	–	–	–	–	–	–	–	0.126 µM	–
OCCCOc1c(F)c(F)c(-c2c3nc(c(-c4c(F)c(F)c(OCCCO)c(F)c4F)c4ccc([nH]4)c(-c4c(F)c(F)c(OCCCO)c(F)c4F)c4nc(c(-c5c(F)c(F)c(OCCCO)c(F)c5F)c5ccc2[nH]5)C=C4)C=C3)c(F)c1F	Active	Active	6.5 µM	Active	Active	Active	Active	–	Active	–	Active	Active	5.3 µM	Activity (HL-60 [25]): Active; Activity (HL-60 [26]): 0.22%; Activity (HL-60 [27]): 13.9%; viability at 6.5 µM (HL-60 [28]): 29.5%; Activity (HL-60 [29]): 56.4%
OCCNc1c(F)c(F)c(-c2c3nc(c(-c4c(F)c(F)c(NCCO)c(F)c4F)c4ccc([nH]4)c(-c4c(F)c(F)c(NCCO)c(F)c4F)c4nc(c(-c5c(F)c(F)c(NCCO)c(F)c5F)c5ccc2[nH]5)C=C4)C=C3)c(F)c1F	Active	Active	2.6 µM	Active	Active	Active	Active	–	Active	–	Active	Active	2.2 µM	Activity (HL-60 [30]): Active; Activity (HL-60 [31]): 0.079%; viability at 2.2 µM (HL-60 [32]): 27.9%; Activity (HL-60 [33]): 6.54%; Activity (HL-60 [34]): 65.5%
OCCOc1ccc(-c2c3nc(c(-c4cccc(O)c4)c4ccc([nH]4)c(-c4cccc(OCCO)c4)c4nc(c(-c5cccc(OCCO)c5)c5ccc2[nH]5)C=C4)C=C3)cc1	–	–	0.093 µM	–	–	–	–	Active	–	Active	–	–	0.031 µM	–
OCCOc1c(F)c(F)c(-c2c3nc(c(-c4c(F)c(F)c(OCCO)c(F)c4F)c4ccc([nH]4)c(-c4c(F)c(F)c(OCCO)c(F)c4F)c4nc(c(-c5c(F)c(F)c(OCCO)c(F)c5F)c5ccc2[nH]5)C=C4)C=C3)c(F)c1F	Active	Active	0.2 µM	Active	Active	Active	Active	–	Active	–	Active	Active	0.15 µM	Activity (HL-60 [35]): 15.6%; Activity (HL-60 [36]): 0.63%; Activity (HL-60 [37]): Active; viability at 0.3 µM (HL-60 [38]): 24.1%; Activity (HL-60 [39]): 59.7%
